In paper PMC11992225, “Antibacterial compounds against non-growing and intracellular bacteria” (npj Antimicrobials and Resistance, 2025):
Values after ≈ are worked out from the molar mass of the structure shown. Values joined by “and” are separate entries in the source; they are usually repeats but may differ in a detail not shown here. Equal entries are not always repeated.

What was measured:
[1] = test system: non-growing S. aureus DSM2569; experiment: Dose-dependent killing analysis (CFU spot-plating) of stationary-phase S. aureus; format: cell-based, Staphylococcus aureus; conditions: S. aureus; for log10(CFU/ml) of treated nongrowing bacteria (single replicates): before treatment 9,097
Method in brief: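 Survival was scored as CFU after overnight growth at 37 °C on LB agar, using spots from 10-fold PBS dilutions of treated cultures. Non-growing S. aureus DSM2569 had been exposed to compound for 24 h in 1:4 CA-MHB, pH 7.4. Three biological replicates were run.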

non-growing UPEC CFT073 [2] = experiment: Dose-dependent killing analysis (CFU spot-plating) of stationary-phase UPEC; format: cell-based, Escherichia coli
Method in brief: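 Killing assessed by CFU counts: overnight 37 °C LB agar spot plates (10 μl drops of 10-fold PBS dilutions) scored at the lowest dilution with distinct colonies. Samples were compound-treated non-growing UPEC CFT073, 200 μl per well. Performed as three biological replicates.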

S. aureus DSM2569 = experiment: MIC, standard microdilution assay, growing S. aureus; format: cell-based, Staphylococcus aureus; conditions: Staphylococcus aureus, DSM2569; S. aureus; CA-MHB pH 7.4; read-out: MIC (μM) CA-MHB
Method in brief: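 Broth microdilution was used throughout. UPEC, P. aeruginosa and S. aureus were tested in CA-MHB buffered with 40 mM HEPES (pH 7.4); UPEC was additionally tested in LPM with 30 mM MES (pH 5.5). S. flexneri was grown in TSB. All determinations were run in triplicate.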

[3] = test system: non-growing P. aeruginosa DSM1117; experiment: Dose-dependent killing analysis (CFU spot-plating) of stationary-phase P. aeruginosa; format: cell-based, Pseudomonas aeruginosa; conditions: P. aeruginosa; for log10(CFU/ml) of treated nongrowing bacteria (single replicates): before treatment 8.887
Method in brief: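 Viability by CFU: samples serially diluted 10-fold in PBS, spotted on LB agar, grown overnight at 37 °C, and colonies counted at the lowest resolvable dilution. Non-growing P. aeruginosa DSM1117 had been dosed for 24 h in 1:4 CA-MHB (pH 7.4); three biological replicates.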

non-growing UPEC CFT073 [4] = experiment: Dilution-regrowth assay (screen, hit validation, dose-response) on stationary-phase UPEC; format: cell-based, Escherichia coli; conditions: Escherichia coli; E. coli, pH 7.4; regrowth delay of non-growing bacteria, 1:4 CA-MHB, 24 h treatment, OD600 6 h after 2500-fold dilution; read-out: EC50
Method in brief: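 Regrowth (OD600 after 6 h, 37 °C) of diluted non-growing CFT073, following 24 h compound treatment of 24 h stationary cultures, defines activity relative to untreated control. Screen at 20 µM, validation at 20, 10, 5 µM (duplicates), dose–response in three biological replicates fitted by five-parameter logistic.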

O=C(O)c1cn(-c2ccc(F)cc2)c2cc(N3CCNCC3)c(F)cc2c1=O [Sarafloxacin]
killing, average Δlog10(CFU/ml) ([1]; drug concentration 0.1): 0.203 log10(CFU/ml) | log10(CFU/ml) of treated nongrowing bacteria (single replicates) ([1]; drug concentration 0.1): 8.845 log10(CFU/ml) and 8.903 log10(CFU/ml) and 8.934 log10(CFU/ml) | killing, average Δlog10(CFU/ml) ([1]; drug concentration 0.5): 0.133 log10(CFU/ml) | log10(CFU/ml) of treated nongrowing bacteria (single replicates) ([1]; drug concentration 0.5): 8.869 log10(CFU/ml) and 9.111 log10(CFU/ml) and 8.914 log10(CFU/ml) | killing, average Δlog10(CFU/ml) ([1]; drug concentration 2.5): 0.565 log10(CFU/ml) | log10(CFU/ml) of treated nongrowing bacteria (single replicates) ([1]; drug concentration 2.5): 8.681 log10(CFU/ml) and 8.914 log10(CFU/ml) and 8.000 log10(CFU/ml) | killing, average Δlog10(CFU/ml) ([1]; drug concentration 10): 0.598 log10(CFU/ml) | log10(CFU/ml) of treated nongrowing bacteria (single replicates) ([1]; drug concentration 10): 8.462 log10(CFU/ml) and 8.653 log10(CFU/ml) and 8.380 log10(CFU/ml) | killing, average Δlog10(CFU/ml) (non-growing UPEC CFT073 [2]; E. coli in 1:4 CA-MHB (pH 7.4), drug concentration 0.25): 0.025 log10(CFU/ml) | log10(CFU/ml) of treated nongrowing bacteria (single replicates) (non-growing UPEC CFT073 [2]; E. coli in 1:4 CA-MHB (pH 7.4), drug concentration 0.25, before treatment 8.977): 9.301 log10(CFU/ml) and 8.477 log10(CFU/ml) and 9.079 log10(CFU/ml) | killing, average Δlog10(CFU/ml) (non-growing UPEC CFT073 [2]; E. coli in 1:4 CA-MHB (pH 7.4), drug concentration 0.5): 0.172 log10(CFU/ml) | log10(CFU/ml) of treated nongrowing bacteria (single replicates) (non-growing UPEC CFT073 [2]; E. coli in 1:4 CA-MHB (pH 7.4), drug concentration 0.5, before treatment 8.977): 9.000 log10(CFU/ml) and 8.954 log10(CFU/ml) and 8.462 log10(CFU/ml) | killing, average Δlog10(CFU/ml) (non-growing UPEC CFT073 [2]; E. coli in 1:4 CA-MHB (pH 7.4), drug concentration 1): 0.391 log10(CFU/ml) | log10(CFU/ml) of treated nongrowing bacteria (single replicates) (non-growing UPEC CFT073 [2]; E. coli in 1:4 CA-MHB (pH 7.4), drug concentration 1, before treatment 8.977): 9.114 log10(CFU/ml) and 8.532 log10(CFU/ml) and 8.114 log10(CFU/ml) | killing, average Δlog10(CFU/ml) (non-growing UPEC CFT073 [2]; E. coli in 1:4 CA-MHB (pH 7.4), drug concentration 2.5): 1.103 log10(CFU/ml) | log10(CFU/ml) of treated nongrowing bacteria (single replicates) (non-growing UPEC CFT073 [2]; E. coli in 1:4 CA-MHB (pH 7.4), drug concentration 2.5, before treatment 8.977): 8.398 log10(CFU/ml) and 7.903 log10(CFU/ml) and 7.322 log10(CFU/ml) | killing, average Δlog10(CFU/ml) (non-growing UPEC CFT073 [2]; E. coli in 1:4 CA-MHB (pH 7.4), drug concentration 5): 1.741 log10(CFU/ml) | log10(CFU/ml) of treated nongrowing bacteria (single replicates) (non-growing UPEC CFT073 [2]; E. coli in 1:4 CA-MHB (pH 7.4), drug concentration 5, before treatment 8.977): 7.491 log10(CFU/ml) and 7.176 log10(CFU/ml) and 7.041 log10(CFU/ml) | killing, average Δlog10(CFU/ml) (non-growing UPEC CFT073 [2]; E. coli in 1:4 CA-MHB (pH 7.4), drug concentration 10): 2.143 log10(CFU/ml) | log10(CFU/ml) of treated nongrowing bacteria (single replicates) (non-growing UPEC CFT073 [2]; E. coli in 1:4 CA-MHB (pH 7.4), drug concentration 10, before treatment 8.977): 7.279 log10(CFU/ml) and 6.845 log10(CFU/ml) and 6.380 log10(CFU/ml) | killing, average Δlog10(CFU/ml) (non-growing UPEC CFT073 [2]; E. coli in LPM (pH 5.5), drug concentration 0.25): 0.072 log10(CFU/ml) | log10(CFU/ml) of treated nongrowing bacteria (single replicates) (non-growing UPEC CFT073 [2]; E. coli in LPM (pH 5.5), drug concentration 0.25, before treatment 7.350): 7.079 log10(CFU/ml) and 6.477 log10(CFU/ml) and 8.279 log10(CFU/ml) | killing, average Δlog10(CFU/ml) (non-growing UPEC CFT073 [2]; E. coli in LPM (pH 5.5), drug concentration 0.5): 0.127 log10(CFU/ml) | log10(CFU/ml) of treated nongrowing bacteria (single replicates) (non-growing UPEC CFT073 [2]; E. coli in LPM (pH 5.5), drug concentration 0.5, before treatment 7.350): 6.778 log10(CFU/ml) (2×) and 8.114 log10(CFU/ml) | killing, average Δlog10(CFU/ml) (non-growing UPEC CFT073 [2]; E. coli in LPM (pH 5.5), drug concentration 1): 0.084 log10(CFU/ml) | log10(CFU/ml) of treated nongrowing bacteria (single replicates) (non-growing UPEC CFT073 [2]; E. coli in LPM (pH 5.5), drug concentration 1, before treatment 7.350): 6.477 log10(CFU/ml) and 7.146 log10(CFU/ml) and 8.176 log10(CFU/ml) | killing, average Δlog10(CFU/ml) (non-growing UPEC CFT073 [2]; E. coli in LPM (pH 5.5), drug concentration 2.5): 0.011 log10(CFU/ml) | log10(CFU/ml) of treated nongrowing bacteria (single replicates) (non-growing UPEC CFT073 [2]; E. coli in LPM (pH 5.5), drug concentration 2.5, before treatment 7.350): 7.114 log10(CFU/ml) and 7.000 log10(CFU/ml) and 7.903 log10(CFU/ml) | killing, average Δlog10(CFU/ml) (non-growing UPEC CFT073 [2]; E. coli in LPM (pH 5.5), drug concentration 5): -0.00245 log10(CFU/ml) | log10(CFU/ml) of treated nongrowing bacteria (single replicates) (non-growing UPEC CFT073 [2]; E. coli in LPM (pH 5.5), drug concentration 5, before treatment 7.350): 6.903 log10(CFU/ml) and 7.114 log10(CFU/ml) and 8.041 log10(CFU/ml) | killing, average Δlog10(CFU/ml) (non-growing UPEC CFT073 [2]; E. coli in LPM (pH 5.5), drug concentration 10): 0.353 log10(CFU/ml) | log10(CFU/ml) of treated nongrowing bacteria (single replicates) (non-growing UPEC CFT073 [2]; E. coli in LPM (pH 5.5), drug concentration 10, before treatment 7.350): 6.699 log10(CFU/ml) and 6.845 log10(CFU/ml) and 7.447 log10(CFU/ml) | MIC (S. aureus DSM2569): 1 µM (≈ 0.385 µg/mL) | killing, average Δlog10(CFU/ml) ([3]; drug concentration 0.1): 0.295 log10(CFU/ml) | log10(CFU/ml) of treated nongrowing bacteria (single replicates) ([3]; drug concentration 0.1): 8.699 log10(CFU/ml) and 8.903 log10(CFU/ml) and 8.176 log10(CFU/ml) | killing, average Δlog10(CFU/ml) ([3]; drug concentration 0.5): 1.719 log10(CFU/ml) | log10(CFU/ml) of treated nongrowing bacteria (single replicates) ([3]; drug concentration 0.5): 7.301 log10(CFU/ml) and 6.602 log10(CFU/ml) and 7.602 log10(CFU/ml) | killing, average Δlog10(CFU/ml) ([3]; drug concentration 2.5): 3.802 log10(CFU/ml) | log10(CFU/ml) of treated nongrowing bacteria (single replicates) ([3]; drug concentration 2.5): 5.301 log10(CFU/ml) and 5.176 log10(CFU/ml) and 4.778 log10(CFU/ml) | killing, average Δlog10(CFU/ml) ([3]; drug concentration 10): 4.887 log10(CFU/ml) | log10(CFU/ml) of treated nongrowing bacteria (single replicates) ([3]; drug concentration 10): =<4 log10(CFU/ml) | EC50 (non-growing UPEC CFT073 [4]): 1720 nM
